A short description of this series: Half life of compound was determined. The class given is ADME.

For orientation: half-life means how long it takes for the measured level to halve.

Consider `N[C@@H](Cc1ccc(C2(C(F)(F)F)N=N2)cc1OCCNC(=O)CCCC[C@@H]1SC[C@@H]2NC(=O)N[C@@H]21)C(=O)O`, for which the half-life was determined as 2.6 min.

`N[C@@H](Cc1ccc(C2(C(F)(F)F)N=N2)cc1OCCOCCOCCNC(=O)CCCC[C@@H]1SC[C@@H]2NC(=O)N[C@@H]21)C(=O)O` yielded a half-life of 2.3 min.
